Series [1] has as its system PC-3 prostate cancer cells. Briefly: Example T: sensitisation of PC-3 cells to doxorubicin, oxaliplatin, paclitaxel or vincristine, Wst1. It counts as cell-based, human. As to conditions: PC-3 cells, 72 hours; for Doxorubicin 3.5 μM: percent cell survival / Oxaliplatin 100 μM: percent cell survival / Paclitaxel 50 μM: percent cell survival / Vincristine 100 nM: percent cell survival: chemotherapy agent alone normalized to 100%; for viability at 0.4 µM: compound 0.4 μM alone.

The test system of series [2] is 4T1 murine breast cancer cells. The series can be described thus: Example S: in vitro anticancer screen, 4T1 cells, Wst1. It counts as cell-based, mouse. The following applies: Mus musculus, 4T1, 18 h, 18 hr, Wst1; for viability at 1 µM: read-out: 4T1 1 μM, percent of cancer cell survival relative to vehicle treated cells; for viability at 5 µM: read-out: 4T1 5 μM, percent of cancer cell survival relative to vehicle treated cells. The method, boiled down: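 Read-out is Wst1 absorbance (450 nm, reference 630 nm) after roughly 2 hr dye incubation, giving percent cell survival versus vehicle. Before that, compounds at 1 μM or 5 μM were applied for 18 hr to 4T1 cells plated at 1×10^4 per well.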

The test system of the next series is S. cerevisiae. The series can be described thus: Example I: Saccharomyces cerevisiae growth inhibition (OD 600 nm). Format: cell-based. The following applies: for IC50: read-out: IC50, uM (50% inhibition of fungal growth). On the procedure: An overnight culture of S. cerevisiae was dilution in YPD broth to concentration of 40,000/ml and 150 μl/well was plated in 96 well plates. Compounds were then added to each well with concentration ranged from 4 to 50 μM as final concentration. The plates were inoculated at 30° C. overnight with shaking at 220 rpm and absorbance at 600 nm was read after 18 hour incubation.
• 1. One days prior to the inoculum preparation, pick a single colony of S. cerevisiae from the Sabouraud Dextrose Agar plate using the inoculum loop and inoculate into a 50 mL tube containing 10 ml of YPD growth medium • 2. Incubate at 30° C. with shaking at 220 rpm for 24 hours with loosen lid to allow air in and facilitates growth. • 3. Examine an aliquot of the culture under a microscope for yeast cell morphology and lack of bacterial contamination. • 4. Dilute the overnight culture with YPD medium at 1:30 dilution (70 ul to 2.1 ml) and count the number of cells as 4,230,000/ml. • 5. Mix 620 μl of 1:30 dilution and 64.4 ml YPD to make final concentration of 40,000/ml cells • 6. Plated 144 μl/well in four 96-well plates.
• 1. From 10 mM DMSO stock solutions, make serial dilutions of compounds to 0.1, 0.2, 0.3, 0.63 and 1.25 mM solutions • 2. Add 6 μl each of diluted compound solutions per well in duplicates. The final concentrations were 0, 4, 8, 12, 25 and 50 micromolar. • 3. Incubated all plates at 30 C for overnight (˜18 hours) with 220 rpm shaking. • 4. Read absorbance at OD600 for each plate on Spectra Max Plus plate reader. • 5. Calculate the % inhibition of each compound against the DMSO treated cell and plotted.

The test system of a further series is THP-1 cells. The series can be described thus: Example D: LPS-triggered THP-1 cell death assay, acute/5-hour and chronic/48-hour. Format: cell-based, Human. As to conditions: 10 ng/ml LPS, 0.1 μM test compound, 48 hours. Here is the method: Compounds of the invention were tested at 0.1 μM versus AC in the LPS-triggered THP-1 cell death assay. Both acute/5-hour and chronic/48-hour phases of cell death were assessed. Compounds were screened in batches with DMSO as the negative control and AC as the high activity control.

In series [3] the test system is PC3 human prostate cancer cells. Briefly: Example S: in vitro anticancer screen, PC-3 cells, Wst1. It counts as cell-based. The following applies: Homo sapiens, PC-3, approximately 20 hours, Wst1, read-out: PC-3, percent of cancer cell survival relative to vehicle treated cells. In a few lines: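 Values give percent survival relative to vehicle, read by Wst1 absorbance (450/630 nm) after 2 h dye incubation, in triplicate. Cells were seeded at 2×10^4/well and treated about 20 h with compound at 0.4, 0.5 or 2.5 μM, depending on compound.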

The subject of series [4] is Candida albicans strain 3153. Briefly: Example H: Candida albicans growth inhibition (OD 600 nm). It counts as cell-based. Here is the method:
A single colony of Candida Albicans was grown in 50 ml YPD broth overnight (19 hr). The cells were washed with PBS and 3.5×10^4 CFU/ml of C. Albicans (144 μl/well) in YPD medium were plated in 96 well plates. Test compounds were then added to each well with concentration ranged from 5 to 40 μM as final concentrations. The plates were incubated at 30° C. overnight (24 hrs) and OD at 600 nm was read at the end of incubation as an index of yeast cell density.
Part-I: Preparation of Candida albicans Cells • 1. One day prior to the inoculum preparation, pick a single colony of Candida albicans strain 3153 (lot #61794) from the Sabouraud Dextrose Agar plate using the inoculum loop and inoculate into a 250 mL flask containing 50 ml of YPD growth medium • 2. Incubate at 30° C. with shaking at 150 rpm for at least 18 hours with loosened lid to allow air in and facilitate growth. • 3. Examine an aliquot of the culture under a microscope for Candida cell morphology and lack of bacterial contamination; >95% of Candida cells should be blastoconidia. • 4. Transfer 25 ml the overnight culture into a 50-ml plastic disposable centrifuge tube, and centrifuge at 1000×g for 20 min. • 5. Discard the supernatant and wash the pellet with 4 ml of PBS at three times. Vortex and centrifuge, 1000×g for 10 min. • 6. After the third wash, dispense the pellet with 2 ml PBS and vortex. • 7. Make three 1:10 serial dilutions in sterile PBS (10^−1, 10^−2, 10^−3) from the 2 ml cell suspension using 15 ml culture tubes. The final volume in each tube is 5 ml. • 8. […] Make a 1:4 dilution in YPD medium from the 50-fold dilution of 10^−3 cell suspension for testing compounds. • The final C. albicans cell concentration for the test: 3.5×10^4 CFU/ml • 10. Plated 144 ul/well of the above dilution of cell on 96-well plates. Part-II: C. Albicans Growth Inhibition Testing with Compounds • 1. From 10 mM DMSO stock solutions, make serial dilutions of compounds to 0.13, 0.25, 0.40, 0.55, 0.75 and 1.0 mM solutions • 2. Add 6 ul each of diluted compound solutions per well in duplicates. The final concentrations were 0, 5, 10, 16, 22, 30 and 40 micromolar. • 3. Incubated all plates at 30 C for overnight (˜24 hours). • 4. Read absorbance at OD600 for each plate. • 5. Calculate the % inhibition of each compound against the DMSO treated cell.

For series [5], the system named is imiquimod-induced dermatitis. As to conditions: for Ear thickness, Mean ± SEM: imiquimod-treated mice; for Ear thickness, Mean ± SEM / PASI Score, Mean ± SEM: topical ointment 0.06% active drug (dexamethasone 0.03%, tacrolimus 0.1%); for PASI Score, Mean ± SEM: scale 0-12. On the procedure:
Topical imiquimod (IMQ), a toll-like receptor agonist, has been established as a model of Inflammatory skin diseases including psoriasis and atopic dermatitis. Dermal inflammatory changes and gene expression in mice treated with topical imiquimod mimic human psoriasis and dermatitis (van der Fits et al., 2009; Swindell et al., 2011). The effect of a set of compounds of the invention were tested in a mouse model of imiquimod-induced dermatitis, with topical tacrolimus and dexamethasone as comparators for assessing safety and efficacy relative to standard agents used to treat dermatitis in humans.
Commercial 0.1% tacrolimus ointment (ProTopic™[…]) was also used as an active comparator. Petrolatum containing 10% ethanol was used as a control treatment.
Female Balb/C mice (8 weeks old) were randomized and divided into groups of 5 animals each. Polyethylene collars were affixed to the mice to prevent them from easily scratching their ears. 5% imiquimod was applied to both ears of each mouse (20 microliters per ear) daily for 5 days, and then every other day for the full duration of the study. […] On day 7 after initiation of imiquimod, treatment with topical agents was started. Both ears of each mouse were treated with test ointments, with one compound per mouse.
Ear thickness and PASI assessments (Psoriasis Area and Severity Index, a standard psoriasis scoring system) were recorded twice per week throughout the study. The PASI score comprises the sum of evaluations of swelling, erythema and scaling on scales from 0 to 4; the maximum PASI score is 12, and the minimum, in unaffected skin, is 0).

The mark [6] stands for this setting: Saccharomyces cerevisiae, 18 hour incubation at 30° C., OD 600 nm, XLfit.
Setting [7] is: Homo sapiens, Wst1, vehicle = 100, read-out: No Chemo: percent cell survival.
Setting [8] is: compound 0.4 μM + doxorubicin 3.5 μM.
Setting [9] is: compound 0.4 μM + oxaliplatin 100 μM.
[10] abbreviates: compound 0.4 μM + paclitaxel 50 μM.
[11] abbreviates: compound 0.4 μM + vincristine 100 nM.

Values after ≈ are worked out from the molar mass of the structure shown.

This note sets out measurements from patent publication US20250034139A1, “AMINE COMPOUNDS HAVING ANTI-INFLAMMATORY, ANTIFUNGAL, ANTIPARASITIC, AND ANTICANCER ACTIVITY” (PHARMA CINQ, LLC, priority 2013, published 2025).

Turning to `CCCCCCOCCCCCCCCNc1ccnc2cc(C(F)(F)F)ccc12` [AY, N-[8-(Hexyloxy)octyl]-7-(trifluoromethyl)quinolin-4-amine], in series [1] (Homo sapiens, compound 2.5 μM alone, Wst1, vehicle = 100, read-out: No Chemo: percent cell survival), the viability at 2.5 µM came out at 50.4%. Moreover, the “Doxorubicin 3.5 μM: percent cell survival” value in series [1] (compound 2.5 μM + doxorubicin 3.5 μM) was 78.9%. Moreover, in series [1] (compound 2.5 μM + oxaliplatin 100 μM), the “Oxaliplatin 100 μM: percent cell survival” value is 92%. Besides, the “Paclitaxel 50 μM: percent cell survival” value in series [1] (compound 2.5 μM + paclitaxel 50 μM) stood at 90.1%. For the same compound, the “Vincristine 100 nM: percent cell survival” value in series [1] (compound 2.5 μM + vincristine 100 nM) was found to be 78.7%. Further, in series [2], the viability at 1 µM was found to be 131% and the viability at 5 µM came out at 34.5%. In addition, the IC50 (usually the concentration that gives 50% inhibition) in the series with S. cerevisiae (setting [6]) turned out to be 16.9 µM. Besides, in the series on S. cerevisiae (Saccharomyces cerevisiae, 18 hour incubation at 30° C., OD 600 nm, XLfit, read-out: MIC, uM (99% of inhibition of fungal growth)), the MIC (as a rule, the lowest concentration that inhibits growth of the organism) is 21.9 µM (≈ 9.29 µg/mL). Also, the “Viable cell percent change, Chronic/48-hour, Mean” value (“Viable cell percent change” for short) with THP-1 cells stood at 7.71%. In addition, the viability at 2.5 µM in series [3] (2.5 μM) was determined as 50.4%.
For `c1ccc2c(NCCCCCCCCNc3ccnc4ccccc34)ccnc2c1` [Compound AI, N^1,N^8-Di(quinolin-4-yl)octane-1,8-diamine], the viability at 0.4 µM in series [1] (setting [7]) and in series [3] was 36.4% each time. Further, in series [1] (setting [8]), the “Doxorubicin 3.5 μM: percent cell survival” value was 80.8%. Further, the “Oxaliplatin 100 μM: percent cell survival” value in series [1] (setting [9]) is given as 89%. The “Paclitaxel 50 μM: percent cell survival” value in series [1] (setting [10]) is given as 96.1%. In addition, in series [1] (setting [11]), the “Vincristine 100 nM: percent cell survival” value turned out to be 64.9%. In addition, the viability at 1 µM in series [2] is 16.2%. The viability at 5 µM in series [2] was determined as 17.9%. For the same compound, the IC50 in the series with S. cerevisiae (setting [6]) was 6.31 µM; in series [4] (Candida albicans, 3153, read-out: IC50 (uM) (50% inhibition of fungal growth), 24 hrs at 30° C., YPD, XLfit) it was 18.3 µM. Besides, in the series with S. cerevisiae (tested 4 to 50 μM), the “inactive compound (inhibition of yeast growth, in words)” value is given as “could not reach near 100% kill at high concentration”. Further, the “Viable cell percent change” value in the series with THP-1 cells stood at 28.60%. In addition, the MIC in series [4] (Candida albicans, 3153, 24 hrs at 30° C., YPD, XLfit, read-out: MIC (uM) (99% of inhibition of fungal growth)) is 56.4 µM (≈ 22.5 µg/mL).
On to `c1ccc(Oc2ccc(Nc3ccnc4ccccc34)cc2)cc1` [DD, N-(4-Phenoxyphenyl)quinolin-4-amine], for which, in series [2], the viability at 1 µM came out at 97.4% and the viability at 5 µM came to 104%. In the series with THP-1 cells, the “Viable cell percent change” value amounted to 44.34%. For the same compound, in series [5], the “Ear thickness, Mean ± SEM” value was 0.589 ± 0.018 and the “PASI Score, Mean ± SEM” value is listed as 7.450 ± 0.322. Further, in series [5] (mouse, in vivo), the “Body Weight (mean ± SEM), Final” value is reported as 20.7 ± 0.6 g; the “Body Weight (mean ± SEM), Initial” value is 20.9 ± 0.8 g; the “D BW” value was -0.2 g.
For the compound `CCCCCCCCCCOc1cccc(CNc2ccnc3ccccc23)c1` [DU, N-[3-(Decyloxy)benzyl]quinolin-4-amine], the “Viable cell percent change” value in the series on THP-1 cells is 17.10%. Also, in series [5], the “Ear thickness, Mean ± SEM” value amounted to 0.607 ± 0.027 and the “PASI Score, Mean ± SEM” value amounted to 7.975 ± 0.621. In addition, in series [5] (mouse, in vivo), the “Body Weight (mean ± SEM), Final” value was found to be 20.9 ± 0.5 g; the “Body Weight (mean ± SEM), Initial” value was 20.4 ± 0.7 g; the “D BW (g)” value was “+0.5 g”.
Consider `O=C(NCCCCCCCCNc1ccnc2ccccc12)c1cccnc1` [EF, N-[8-(Quinolin-4-ylamino)octyl]nicotinamide], for which the viability at 0.4 µM in series [1] (setting [7]) was 16.7%. Also, the “Doxorubicin 3.5 μM: percent cell survival” value in series [1] (setting [8]) is given as 31.3%. The “Oxaliplatin 100 μM: percent cell survival” value in series [1] (setting [9]) was 21.7%. For the same compound, in series [1] (setting [10]), the “Paclitaxel 50 μM: percent cell survival” value is recorded as 24.3%. In series [1] (setting [11]), the “Vincristine 100 nM: percent cell survival” value worked out at 23.4%. Further, in series [2], the viability at 1 µM was 15.6% and the viability at 5 µM amounted to 23.7%. For the same compound, the viability at 0.4 µM in series [3] is 16.7%. In series [5], the “Ear thickness, Mean ± SEM” value is listed as 0.613 ± 0.010 and the “PASI Score, Mean ± SEM” value was 7.275 ± 0.199. Also, in series [5] (mouse, in vivo), the “Body Weight (mean ± SEM), Final” value is 21.3 ± 0.2 g; the “Body Weight (mean ± SEM), Initial” value is listed as 21.5 ± 0.6 g; the “D BW” value was -0.2 g.
